{"source": "patent US20260285850A1", "about": "“SUBSTITUTED OXAZOLIDINONES AND IMIDAZOLINONES AS HERBICIDES” (FMC CORPORATION, priority 2023, published 2026)", "type_in_all_cases": "in vivo", "key": {"[1]": {"system": "palmer (palmer amaranth, palmer pigweed, Amaranthus palmeri)", "assay": "Test A postemergence application, visual injury rating 0-100", "conditions": "10 days", "procedure,_shortened": "(§1)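 Plants were grown in a loam soil-sand blend and treated with test chemical in a non-phytotoxic solvent mixture containing surfactant, either sprayed on soil preemergence or applied postemergence to 2-10 cm plants. After 10 days in a greenhouse, injury was scored visually against untreated controls, 0 meaning no effect and 100 complete control.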"}, "[2]": {"system": "blackgrass (Alopecurus myosuroides)", "assay": "Test A postemergence application, visual injury rating 0-100", "conditions": "10 days", "procedure,_shortened": "as §1"}, "[3]": {"system": "oat, wild (wild oat, Avena fatua)", "assay": "Test A postemergence application, visual injury rating 0-100", "conditions": "10 days", "procedure,_shortened": "as §1"}, "kochia (Bassia scoparia) [4]": {"system": "kochia (Bassia scoparia)", "assay": "Test A postemergence application, visual injury rating 0-100", "conditions": "10 days", "procedure,_shortened": "as §1"}, "[5]": {"system": "green foxtail (Setaria viridis)", "assay": "Test A postemergence application, visual injury rating 0-100", "conditions": "10 days", "procedure,_shortened": "as §1"}, "soybean (Glycine max) [6]": {"system": "soybean (Glycine max)", "assay": "Test A postemergence application, visual injury rating 0-100", "conditions": "10 days", "procedure,_shortened": "as §1"}, "corn (Zea mays) [7]": {"system": "corn (Zea mays)", "assay": "Test A postemergence application, visual injury rating 0-100", "conditions": "10 days", "procedure,_shortened": "as §1"}, "[8]": {"system": "barnyardgrass (Echinochloa crus-galli)", "assay": "Test A postemergence application, visual injury rating 0-100", "conditions": "10 days", "procedure,_shortened": "as §1"}, "[9]": {"system": "wheat (Triticum aestivum)", "assay": "Test A postemergence application, visual injury rating 0-100", "conditions": "10 days", "procedure,_shortened": "as §1"}, "[10]": {"system": "horseweed (Erigeron canadensis)", "assay": "Test A postemergence application, visual injury rating 0-100", "conditions": "10 days", "procedure,_shortened": "as §1"}, "[11]": {"system": "ryegrass, Italian (italian ryegrass, Lolium multiflorum)", "assay": "Test A postemergence application, visual injury rating 0-100", "conditions": "10 days", "procedure,_shortened": "as §1"}, "[12]": {"system": "ragweed (common ragweed, Ambrosia artemisiifolia)", "assay": "Test A postemergence application, visual injury rating 0-100", "conditions": "10 days", "procedure,_shortened": "as §1"}, "[13]": {"system": "palmer (palmer amaranth, palmer pigweed, Amaranthus palmeri)", "assay": "Test A preemergence soil spray, visual injury rating 0-100", "conditions": "10 days, 0 = no effect, 100 = complete control", "procedure,_shortened": "as §1"}, "[14]": {"system": "blackgrass (Alopecurus myosuroides)", "assay": "Test A preemergence soil spray, visual injury rating 0-100", "conditions": "10 days, 0 = no effect, 100 = complete control", "procedure,_shortened": "as §1"}, "[15]": {"system": "oat, wild (wild oat, Avena fatua)", "assay": "Test A preemergence soil spray, visual injury rating 0-100", "conditions": "10 days, 0 = no effect, 100 = complete control", "procedure,_shortened": "as §1"}, "kochia (Bassia scoparia) [16]": {"system": "kochia (Bassia scoparia)", "assay": "Test A preemergence soil spray, visual injury rating 0-100", "conditions": "10 days, 0 = no effect, 100 = complete control", "procedure,_shortened": "as §1"}, "[17]": {"system": "green foxtail (Setaria viridis)", "assay": "Test A preemergence soil spray, visual injury rating 0-100", "conditions": "10 days, 0 = no effect, 100 = complete control", "procedure,_shortened": "as §1"}, "soybean (Glycine max) [18]": {"system": "soybean (Glycine max)", "assay": "Test A preemergence soil spray, visual injury rating 0-100", "conditions": "10 days, 0 = no effect, 100 = complete control", "procedure,_shortened": "as §1"}, "corn (Zea mays) [19]": {"system": "corn (Zea mays)", "assay": "Test A preemergence soil spray, visual injury rating 0-100", "conditions": "10 days, 0 = no effect, 100 = complete control", "procedure,_shortened": "as §1"}, "[20]": {"system": "barnyardgrass (Echinochloa crus-galli)", "assay": "Test A preemergence soil spray, visual injury rating 0-100", "conditions": "10 days, 0 = no effect, 100 = complete control", "procedure,_shortened": "as §1"}, "[21]": {"system": "wheat (Triticum aestivum)", "assay": "Test A preemergence soil spray, visual injury rating 0-100", "conditions": "10 days, 0 = no effect, 100 = complete control", "procedure,_shortened": "as §1"}, "[22]": {"system": "ryegrass, Italian (italian ryegrass, Lolium multiflorum)", "assay": "Test A preemergence soil spray, visual injury rating 0-100", "conditions": "10 days, 0 = no effect, 100 = complete control", "procedure,_shortened": "as §1"}, "[23]": {"system": "ragweed (common ragweed, Ambrosia artemisiifolia)", "assay": "Test A preemergence soil spray, visual injury rating 0-100", "conditions": "10 days, 0 = no effect, 100 = complete control", "procedure,_shortened": "as §1"}, "[24]": {"system": "sedge, umbrella (small-flower umbrella sedge, Cyperus difformis)", "assay": "Test B flooded paddy test, visual plant response rating 0-100", "conditions": "250 g ai/ha, Flood, applied to paddy water, evaluated after 13 days", "procedure,_shortened": "(§2)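 Plants were grown to the 2-leaf stage, then pots were flooded to 3 cm above the soil and compound was applied directly to the paddy water, with that depth kept throughout.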"}, "[25]": {"system": "barnyardgrass (Echinochloa crusgalli)", "assay": "Test B flooded paddy test, visual plant response rating 0-100", "conditions": "250 g ai/ha, Flood, applied to paddy water, evaluated after 13 days", "procedure,_shortened": "as §2"}, "[26]": {"system": "ducksalad (Heteranthera limosa)", "assay": "Test B flooded paddy test, visual plant response rating 0-100", "conditions": "250 g ai/ha, Flood, applied to paddy water, evaluated after 13 days", "procedure,_shortened": "as §2"}, "rice (Oryza sativa)": {"system": "rice (Oryza sativa)", "assay": "Test B flooded paddy test, visual plant response rating 0-100", "conditions": "250 g ai/ha, Flood, applied to paddy water, evaluated after 13 days", "procedure,_shortened": "as §2"}, "[27]": {"conditions": "31 g ai/ha, postemergence, 0 = no effect, 100 = complete control"}, "[28]": {"conditions": "Postemergence, 125 g ai/ha, 0 is no effect, 100 is complete control"}}}
{"smiles": "CONC(=O)C1CC(NC(=O)C2(C)CN(c3cc(F)cc(F)c3)C(=O)O2)CO1", "note": "(centres unmarked) [Compound 39]", "values": [{"measurement": "Amaranth, Palmer plant response rating (0-100)", "setting": "[1]; [27]", "result": 0}, {"measurement": "Amaranth, Palmer / Pigweed, Palmer plant response rating (0 to 100 scale)", "setting": "[1]; [28]", "result": 20}, {"measurement": "Blackgrass plant response rating (0-100)", "setting": "[2]; [27]", "result": 90}, {"measurement": "Blackgrass plant response rating (0 to 100 scale)", "setting": "[2]; [28]", "result": 100}, {"measurement": "Oat, Wild plant response rating (0-100)", "setting": "[3]; [27]", "result": 90}, {"measurement": "Oat, Wild plant response rating (0 to 100 scale)", "setting": "[3]; [28]", "result": 90}, {"measurement": "Kochia plant response rating (0-100)", "setting": "kochia (Bassia scoparia) [4]; [27]", "result": 20}, {"measurement": "Kochia plant response rating (0 to 100 scale)", "setting": "kochia (Bassia scoparia) [4]; [28]", "result": 50}, {"measurement": "Foxtail, Green plant response rating (0-100)", "setting": "[5]; [27]", "result": 20}, {"measurement": "Foxtail, Green plant response rating (0 to 100 scale)", "setting": "[5]; [28]", "result": 90}, {"measurement": "Soybean plant response rating (0-100)", "setting": "soybean (Glycine max) [6]; [27]", "result": 20}, {"measurement": "Soybean plant response rating (0 to 100 scale)", "setting": "soybean (Glycine max) [6]; [28]", "result": 60}, {"measurement": "Corn plant response rating (0-100)", "setting": "corn (Zea mays) [7]; [27]", "result": 0}, {"measurement": "Corn plant response rating (0 to 100 scale)", "setting": "corn (Zea mays) [7]; [28]", "result": 100}, {"measurement": "Barnyardgrass plant response rating (0-100)", "setting": "[8]; [27]", "result": 10}, {"measurement": "Barnyardgrass plant response rating (0 to 100 scale)", "setting": "[8]; [28]", "result": 90}, {"measurement": "Wheat plant response rating (0-100)", "setting": "[9]; [27]", "result": 90}, {"measurement": "Wheat plant response rating (0 to 100 scale)", "setting": "[9]; [28]", "result": 90}, {"measurement": "Horseweed plant response rating (0-100)", "setting": "[10]; [27]", "result": 10}, {"measurement": "Horseweed plant response rating (0 to 100 scale)", "setting": "[10]; [28]", "result": 0}, {"measurement": "Ryegrass, Italian plant response rating (0-100)", "setting": "[11]; [27]", "result": 30}, {"measurement": "Ryegrass, Italian plant response rating (0 to 100 scale)", "setting": "[11]; [28]", "result": 80}, {"measurement": "Ragweed plant response rating (0-100)", "setting": "[12]; [27]", "result": 0}, {"measurement": "Ragweed plant response rating (0 to 100 scale)", "setting": "[12]; [28]", "result": 20}, {"measurement": "Amaranth, Palmer plant response rating (0-100)", "setting": "[13]; 31 g ai/ha", "result": 0}, {"measurement": "Amaranth, Palmer plant response rating (0 to 100 scale)", "setting": "[13]; 125 g ai/ha", "result": 0}, {"measurement": "Blackgrass plant response rating (0-100)", "setting": "[14]; 31 g ai/ha", "result": 0}, {"measurement": "Blackgrass plant response rating (0 to 100 scale)", "setting": "[14]; 125 g ai/ha", "result": 60}, {"measurement": "Oat, Wild plant response rating (0-100)", "setting": "[15]; 31 g ai/ha", "result": 0}, {"measurement": "Oat, Wild plant response rating (0 to 100 scale)", "setting": "[15]; 125 g ai/ha", "result": 90}, {"measurement": "Kochia plant response rating (0-100)", "setting": "kochia (Bassia scoparia) [16]; 31 g ai/ha", "result": 0}, {"measurement": "Kochia plant response rating (0 to 100 scale)", "setting": "kochia (Bassia scoparia) [16]; 125 g ai/ha", "result": 20}, {"measurement": "Foxtail, Green plant response rating (0-100)", "setting": "[17]; 31 g ai/ha", "result": 0}, {"measurement": "Foxtail, Green plant response rating (0 to 100 scale)", "setting": "[17]; 125 g ai/ha", "result": 0}, {"measurement": "Soybean plant response rating (0-100)", "setting": "soybean (Glycine max) [18]; 31 g ai/ha", "result": 0}, {"measurement": "Soybean plant response rating (0 to 100 scale)", "setting": "soybean (Glycine max) [18]; 125 g ai/ha", "result": 10}, {"measurement": "Corn plant response rating (0-100)", "setting": "corn (Zea mays) [19]; 31 g ai/ha", "result": 0}, {"measurement": "Corn plant response rating (0 to 100 scale)", "setting": "corn (Zea mays) [19]; 125 g ai/ha", "result": 0}, {"measurement": "Barnyardgrass plant response rating (0-100)", "setting": "[20]; 31 g ai/ha", "result": 0}, {"measurement": "Barnyardgrass plant response rating (0 to 100 scale)", "setting": "[20]; 125 g ai/ha", "result": 20}, {"measurement": "Wheat plant response rating (0-100)", "setting": "[21]; 31 g ai/ha", "result": 0}, {"measurement": "Wheat plant response rating (0 to 100 scale)", "setting": "[21]; 125 g ai/ha", "result": 90}, {"measurement": "Ryegrass, Italian plant response rating (0-100)", "setting": "[22]; 31 g ai/ha", "result": 0}, {"measurement": "Ryegrass, Italian plant response rating (0 to 100 scale)", "setting": "[22]; 125 g ai/ha", "result": 40}, {"measurement": "Ragweed plant response rating (0-100)", "setting": "[23]; 31 g ai/ha", "result": 0}, {"measurement": "Ragweed plant response rating (0 to 100 scale)", "setting": "[23]; 125 g ai/ha", "result": 0}, {"measurement": "Plant response rating, Sedge, Umbrella (0 to 100 scale, 0 is no effect and 100 is complete control)", "setting": "[24]", "result": 0}, {"measurement": "Plant response rating, Barnyardgrass (0 to 100 scale, 0 is no effect and 100 is complete control)", "setting": "[25]", "result": 0}, {"measurement": "Plant response rating, Ducksalad (0 to 100 scale, 0 is no effect and 100 is complete control)", "setting": "[26]", "result": 0}, {"measurement": "Plant response rating, Rice (0 to 100 scale, 0 is no effect and 100 is complete control)", "setting": "rice (Oryza sativa)", "result": 0}]}
